Data published in patent US11203587B2, “Thyroid hormone receptor beta agonist compounds” (Terns, Inc., priority 2018, dated 2021).

Key:
THR beta-LBD = target: T1, THR beta-LBD (Homo sapiens, UniProt P10828); test: LanthaScreen TR-FRET Thyroid Receptor beta Coactivator Assay; type: biochemical; conditions: for THRβ-Selectivity: THR beta over THR alpha, derived from T3-selectivity normalized data; for EC50: TR-FRET coactivator assay, 2 hours incubation at room temperature, run in duplicate multiple times, average data, read-out: EC50 THRβ-FRET
T1 construct: THR alpha-LBD (0.4 nM final concentration) or THR beta-LBD (1.0 nM final concentration) was added; purchased ThermoFisher
T1 sequence (P10828 217-461 limits assumed): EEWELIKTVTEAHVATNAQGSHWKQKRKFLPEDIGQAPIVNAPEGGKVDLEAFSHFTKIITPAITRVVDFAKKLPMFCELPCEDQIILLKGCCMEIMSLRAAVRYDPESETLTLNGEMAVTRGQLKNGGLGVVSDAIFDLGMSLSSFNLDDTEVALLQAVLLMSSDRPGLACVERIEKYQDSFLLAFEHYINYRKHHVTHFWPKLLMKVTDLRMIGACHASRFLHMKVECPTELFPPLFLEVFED
Description: LanthaScreen™ TR-FRET Thyroid Receptor alpha Coactivator Assay kit (ThermoFisher) and LanthaScreen™ TR-FRET Thyroid Receptor beta Coactivator Assay kit (ThermoFisher) were used for agonist compound screening. […] Buffer C (ThermoFisher) was added to each well before the 4× mixture of fluorescein-SCR2-2 coactivator (200 nM final concentration), Terbium-labeled anti-GST antibody (2 nM final concentration), and THR alpha-LBD (0.4 nM final concentration) or THR beta-LBD (1.0 nM final concentration) was added.

THR alpha-LBD = target: T2, THR alpha-LBD (Homo sapiens, UniProt P10827); test: LanthaScreen TR-FRET Thyroid Receptor alpha Coactivator Assay; type: biochemical; conditions: 2 hours incubation at room temperature, run in duplicate multiple times, average data, read-out: EC50 THRα-FRET
T2 construct: THR alpha-LBD (0.4 nM final concentration) or THR beta-LBD (1.0 nM final concentration) was added; purchased ThermoFisher
T2 sequence (P10827 163-410 isoform P10827-2 limits assumed, other chains not shown): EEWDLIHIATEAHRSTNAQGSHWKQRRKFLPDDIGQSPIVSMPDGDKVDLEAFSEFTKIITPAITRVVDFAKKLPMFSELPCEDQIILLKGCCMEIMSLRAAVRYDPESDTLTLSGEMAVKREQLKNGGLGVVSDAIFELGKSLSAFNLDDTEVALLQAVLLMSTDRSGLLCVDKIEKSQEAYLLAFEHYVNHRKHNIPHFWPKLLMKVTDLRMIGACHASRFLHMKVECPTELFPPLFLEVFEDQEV
Description: Example B1: Time-Resolved Fluorescence Resonance Energy Transfer (TR-FRET) Assay for Thyroid Hormone Receptor Agonist Screening
LanthaScreen™ TR-FRET Thyroid Receptor alpha Coactivator Assay kit (ThermoFisher) and LanthaScreen™ TR-FRET Thyroid Receptor beta Coactivator Assay kit (ThermoFisher) were used for agonist compound screening. Compounds in DMSO were diluted using ECHO Liquid Handler (Labcyte Inc.) into 384 plates in 10-point 3-fold series in duplicate (5 micro M final top concentration). Buffer C (ThermoFisher) was added to each well before the 4× mixture of fluorescein-SCR2-2 coactivator (200 nM final concentration), Terbium-labeled anti-GST antibody (2 nM final concentration), and THR alpha-LBD (0.4 nM final concentration) or THR beta-LBD (1.0 nM final concentration) was added. After 2 hours incubation at room temperature in the dark, the TR-FRET signal was measured on an EnVision plate reader (PerkinElmer) with excitation at 340 nm and dual emission readout at 495 and 520 nm with the delay time of 100 micro second and the integration time of 200 micro second. The ratio of emission signal at 520 and at 495 was used to calculate EC50 using GraphPad Prism (GraphPad Software). […] Compounds' THR-beta selectivity values in Table 2 are derived from T3-selectivity normalized data.

SMILES | THRβ-Selectivity (THR beta-LBD) | EC50 (THR beta-LBD) [µM] | EC50 (THR alpha-LBD) [µM]
CC(C)c1cc(Oc2c(Cl)cc(-c3nn(CC(F)F)c(=O)[nH]c3=O)cc2Cl)nn(C)c1=O [Compound 24, 6-(3,5-dichloro-4-((5-isopropyl-1-methyl-6-oxo-1,6-dihydropyridazin-3-yl)oxy)phenyl)-2-(2,2-difluoroethyl)-1,2,4-triazine-3,5(2H,4H)-dione] | 4.7 | 1.19 | 1.48
CC(C)c1cc(Oc2c(Cl)cc(-c3n[nH]c(=O)[nH]c3=O)c(F)c2Cl)nn(C)c1=O [Compound 25, 6-(3,5-dichloro-2-fluoro-4-((5-isopropyl-1-methyl-6-oxo-1,6-dihydropyridazin-3-yl)oxy)phenyl)-1,2,4-triazine-3,5(2H,4H)-dione] | 4.4 | 0.0222 | 0.025
CCC(CC)c1cc(Oc2c(Cl)cc(-c3nn(C)c(=O)[nH]c3=O)cc2Cl)n[nH]c1=O [Compound 27, 6-(3,5-dichloro-4-((6-oxo-5-(pentan-3-yl)-1,6-dihydropyridazin-3-yl)oxy)phenyl)-2-methyl-1,2,4-triazine-3,5(2H,4H)-dione] | 33.9 | 0.213 | 1.75
CCc1cc(Oc2c(Cl)cc(-c3nn(C)c(=O)[nH]c3=O)cc2Cl)n[nH]c1=O [Compound 28, 6-(3,5-dichloro-4-((5-ethyl-6-oxo-1,6-dihydropyridazin-3-yl)oxy)phenyl)-2-methyl-1,2,4-triazine-3,5(2H,4H)-dione] | 19.2 | 0.67 | 3.44
CC(CO)c1cc(Oc2c(Cl)cc(-c3nn(C)c(=O)[nH]c3=O)cc2Cl)n[nH]c1=O (stereo not drawn) [Compound 29, 6-(3,5-dichloro-4-((5-(1-hydroxypropan-2-yl)-6-oxo-1,6-dihydropyridazin-3-yl)oxy)phenyl)-2-methyl-1,2,4-triazine-3,5(2H,4H)-dione] | 7.105 | 2.07 | 4.04
CCC(O)c1cc(Oc2c(Cl)cc(-c3nn(C)c(=O)[nH]c3=O)cc2Cl)n[nH]c1=O (stereo not drawn) [Compound 30, 6-(3,5-dichloro-4-((5-(1-hydroxypropyl)-6-oxo-1,6-dihydropyridazin-3-yl)oxy)phenyl)-2-methyl-1,2,4-triazine-3,5(2H,4H)-dione] | 24.7 | 0.214 | 1.31
CC(O)c1cc(Oc2c(Cl)cc(-c3nn(C)c(=O)[nH]c3=O)cc2Cl)n[nH]c1=O (stereo not drawn) [Compound 31, 6-(3,5-dichloro-4-((5-(1-hydroxyethyl)-6-oxo-1,6-dihydropyridazin-3-yl)oxy)phenyl)-2-methyl-1,2,4-triazine-3,5(2H,4H)-dione] | 14.4 | 0.987 | 2.67
CCC(C)c1cc(Oc2c(Cl)cc(-c3nn(C)c(=O)[nH]c3=O)cc2Cl)n[nH]c1=O (stereo not drawn) [Compound 32, 6-(4-((5-(sec-butyl)-6-oxo-1,6-dihydropyridazin-3-yl)oxy)-3,5-dichlorophenyl)-2-methyl-1,2,4-triazine-3,5(2H,4H)-dione] | 20.9 | 0.231 | 1.13
CC(O)c1cc(Oc2c(Cl)cc(-c3n[nH]c(=O)[nH]c3=O)cc2Cl)n[nH]c1=O (stereo not drawn) [Compound 34, 6-(3,5-dichloro-4-((5-(1-hydroxyethyl)-6-oxo-1,6-dihydropyridazin-3-yl)oxy)phenyl)-1,2,4-triazine-3,5(2H,4H)-dione] | 8.6 | 0.4 | 1.16
CC(=O)c1cc(Oc2c(Cl)cc(-c3n[nH]c(=O)[nH]c3=O)cc2Cl)nn(C)c1=O [Compound 35, 6-(4-((5-acetyl-1-methyl-6-oxo-1,6-dihydropyridazin-3-yl)oxy)-3,5-dichlorophenyl)-1,2,4-triazine-3,5(2H,4H)-dione] | 10.6 | 0.665 | 1.87
